This note sets out measurements from ChEMBL document CHEMBL2203071, “Gambogic acid deactivates cytosolic and mitochondrial thioredoxins by covalent binding to the functional domain” (J Nat Prod, 2012).

pKi: −log10 of the molar value. The source made the active and inactive calls. The calls are words filed in the database; no cut-off is given here.

Assay [1] addresses T1, Thioredoxin (Homo sapiens) (UniProt P10599).
T1 sequence (whole entry): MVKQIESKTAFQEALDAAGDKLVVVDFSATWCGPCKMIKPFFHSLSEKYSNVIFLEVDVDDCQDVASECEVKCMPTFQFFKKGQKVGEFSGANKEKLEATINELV
The assay is described as follows: Inhibition of human recombinant TRX-1 by insulin reduction assay. The following applies: TDE = time-dependent effect.

The target of assay [2] is T2, Thioredoxin, mitochondrial (Homo sapiens) (UniProt Q99757).
T2 sequence (whole entry): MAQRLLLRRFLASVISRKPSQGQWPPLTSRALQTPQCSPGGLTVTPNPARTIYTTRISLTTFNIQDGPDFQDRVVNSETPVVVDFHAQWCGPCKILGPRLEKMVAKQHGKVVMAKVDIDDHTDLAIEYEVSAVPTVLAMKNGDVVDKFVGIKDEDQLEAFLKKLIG
The assay is described as follows: Covalent binding affinity to human recombinant TRX-2 assessed as change in protein configuration at 20 uM by LC-ESIQTOF mass spectrometry. The following applies: TDE = time-dependent effect.

A further assay deals with T3, Thioredoxin (Homo sapiens, UniProt P10599).
T3 sequence (P10599 whole entry): T1 sequence (whole entry)
The assay is described as follows: (§1) Inhibition of human recombinant TRX-1 up to 60 mins by insulin reduction assay.

The target of assay [3] is T1, Thioredoxin (Homo sapiens). Described as §1.
The target of assay [4] is T1, Thioredoxin (Homo sapiens). Kind of assay: Inhibition of TRX1 in human […] cells after 2 hrs by insulin reduction assay. Type of assay: cell-based.
In assay [5] the target is T1, Thioredoxin (Homo sapiens). Kind of assay: Covalent binding affinity to human recombinant TRX-1 C assessed as modification in C62/C69/C73 residues by LC-MS/MS analysis.
In assay [6] the target is T2, Thioredoxin, mitochondrial (Homo sapiens). Kind of assay: Covalent binding affinity to human recombinant TRX-2 assessed as change in protein configuration at 0.05 mM by MALDITOF mass spectrometry.
For assay [7] the target is unchanged. Kind of assay: Inhibition of human recombinant TRX-2 by insulin reduction assay. The following applies: TDE = time-dependent effect.
The target is the same in assay [8]. Kind of assay: (§2) Inhibition of human recombinant TRX-2 up to 60 mins by insulin reduction assay.
In assay [9] the target is T4, Thioredoxin, mitochondrial (Homo sapiens, UniProt Q99757).
T4 sequence (Q99757 whole entry): T2 sequence (whole entry)
The description is as §2.

Assay [10] has as its target T2, Thioredoxin, mitochondrial (Homo sapiens). Kind of assay: Covalent binding affinity to human recombinant TRX-2 C assessed as modification in C31/C34 residues by LC-MS/MS analysis.
The target of assay [11] is T1, Thioredoxin (Homo sapiens). The assay is described as follows: Covalent binding affinity to human recombinant TRX-1 assessed as change in protein configuration at 0.1 mM by MALDITOF mass spectrometry.
The target in assay [12] is T1, Thioredoxin (Homo sapiens). Kind of assay: Covalent binding affinity to human recombinant TRX-1 assessed as change in protein configuration at 50 uM by LC-ESIQTOF mass spectrometry. The note with it: TDE = time-dependent effect.
Assay [13] has as its target T1, Thioredoxin (Homo sapiens). Kind of assay: Covalent binding affinity to TRX-1 in human […] cells assessed as compound-TRX-1 adduct formation at 3 uM after 2 hrs by immunoblotting in presence of GSH. Type of assay: cell-based. Background: Immunoblotting shows a protein as a band on a membrane.
Assay [14] concerns the target T2, Thioredoxin, mitochondrial (Homo sapiens). The assay is described as follows: Covalent binding affinity to TRX-2 in human […] cells at 3 uM after 2 hrs by immunofluorescence assay. The assay is classed as cell-based.
The target is the same in assay [15]. Kind of assay: Covalent binding affinity to TRX-2 in human […] cells assessed as compound-TRX-2 adduct formation at 3 uM after 2 hrs by immunoblotting in presence of GSH. The assay is classed as cell-based.
The target in assay [16] is T1, Thioredoxin (Homo sapiens). Kind of assay: Covalent binding affinity to TRX-1 in human […] cells at 3 uM after 2 hrs by immunofluorescence assay. The assay is classed as cell-based.

One may read the pKi as −log10 of the Ki, conventionally taken in molar units. On to `CC(C)=CCC[C@]1(C)C=Cc2c(O)c3c(c(CC=C(C)C)c2O1)O[C@]12C(=C[C@@H]4C[C@H]1C(C)(C)O[C@@]2(C/C=C(/C)C(=O)O)C4=O)C3=O` [GAMBOGIC ACID], for which the inhibition result in assay [1] was “tde”; in [3], “Dose-dependent effect”; in assay [4], “Dose-dependent effect”; in assay [7], “tde”; in assay [8] it was “Dose-dependent effect”. The Activity result in assay [2] and in assay [12] was “tde” in each case. For the same compound, the pKi on Thioredoxin was 5.51; in assay [9] it was 5.88. Besides, the values for the Kinact in assay [3] and in [8] were 0.063 min⁻¹ and 0.037 min⁻¹, respectively. In addition, the result in assay [5], in assay [6], in assay [10] and in assay [11] was Active.

For `CC(C)=CCC/C(C)=C/Cc1c(O)c(CC=C(C)C)c2c(c1O)C(=O)C1=C[C@@H]3C[C@H]4C(C)(C)O[C@@](C/C=C(/C)C(=O)O)(C3=O)[C@@]14O2`, the outcome in assay [6] and in assay [11] was Active.

Turning to `CC(C)=CCC[C@]1(C)C=Cc2c(O)c3c(c(CC=C(C)C)c2O1)O[C@]12C(C3=O)[C@H](S(=O)(=O)O)[C@@H]3C[C@H]1C(C)(C)O[C@@]2(C/C=C(/C)C(=O)O)C3=O` (some centres undefined), the outcome in assay [6] and in assay [11] was inactive.

As to `CC(C)=CCC[C@]1(C)C=Cc2c(O)c3c(c(CC=C(C)C)c2O1)O[C@]12C(=C[C@@H]4C[C@H]1C(C)(C)O[C@@]2(C/C=C(/C)C(=O)NCCCCCNC(=O)CCCC[C@@H]1SC[C@@H]2NC(=O)N[C@@H]21)C4=O)C3=O`, the result in assay [13], in assay [14], in assay [15] and in assay [16] was Active.

Consider `CC(C)=CCC[C@]1(C)C=Cc2c(O)c3c(c(CC=C(C)C)c2O1)O[C@]12C(C[C@@H]4C[C@H]1C(C)(C)O[C@@]2(C/C=C(/C)C(=O)O)C4=O)C3=O` (some centres undefined), for which the outcome in assay [6] and in assay [11] was inactive.

Consider `CC(C)=CCC[C@]1(C)C=Cc2c(O)c3c(c(CC=C(C)C)c2O1)O[C@]12C(C3=O)C(O)[C@@H]3C[C@H]1C(C)(C)O[C@@]2(C/C=C(/C)C(=O)O)C3=O` (some centres undefined), for which the outcome in assay [6] and in [11] was inactive.

In the case of `CC(C)=CCC[C@]1(C)C=Cc2c(O)c3c(c(CC=C(C)C)c2O1)O[C@]12C(C3=O)[C@@H](S(=O)(=O)O)[C@@H]3C[C@H]1C(C)(C)O[C@@]2(C/C=C(/C)C(=O)O)C3=O` (some centres undefined), the result in [6] and in [11] was inactive.
